Data as given in US20260199327A1, “PHARMACEUTICAL COMBINATION AND PHARMACEUTICAL COMPOSITION FOR TREATING CANCER” (CSPC ZHONGQI PHARMACEUTICAL TECHNOLOGY (SHIJIAZHUANG) CO., …, priority 2022, published 2026).
Read-outs that look alike come from different tables or passages of the source. Marks after values point to notes of the source that are not given here.

Columns and labels:
Huh-7 cells = assay: Huh-7 tumor cell proliferation inhibition assay (CellTiter Glo); assay type: cell-based; conditions: Homo sapiens, 72 or 168 hours
Protocol: Huh-7 cell suspension was adjusted to 5×10^4/ml or 2×10^4/ml with DMEM+2 mM Glutamine+10% FBS medium. 100 μL of cell suspension was added per well to a 96-well cell culture plate, to give a final cell concentration of 5000 cells/well (72 hours) or 2000 cells/well (168 hours). The compound to be tested (compound of formula (B)) was dissolved in DMSO to give 10 mmol of stock solution. 200× final concentration of compound was prepared with stock solution and DMSO, and 3× serial gradient dilutions were prepared, then diluted 20-fold each with medium. Finally, 10 μL of the corresponding 10-fold solution was added per well for each cell, wherein each drug concentration was added in one well. […] After 72 or 168 hours of drug treatment, according to CTG instructions (CellTiter Glo), 100 μL of CTG solution that had been previously thawed and equilibrated to room temperature was added per well, mixed for 2 minutes using a microplate shaker, placed at room temperature for 10 minutes, and then chemiluminescent signal value was measured with EnSpire plate reader. Cell survival was calculated using formula: (Vsample−Vblank)/(Vvehicle control−Vblank)×100%, wherein Vsample is the reading of the drug treatment group, Vvehicle control is the average of the solvent control group, and Vblank is the average of the blank control wells. […]

[1] = test system: Hep3B (human hepatocarcinoma cell line) xenograft
Text: 42 NU/NU mouse, female, 42-48 days old, weighing 22-26 g.
Hep3B cells were resuscitated and passaged in vitro to the desired number of cells. The cells were counted under a microscope, and diluted with serum-free medium and matrix gel (1:1) to adjust the number of tumor cells to approximately 5×10^7 cells/mL. The cell suspension was placed in an ice bath.
Hep3B cell suspension was withdrawn with a sterile syringe for inoculation into subcutaneous tissue in the axilla of the forelimb of NU/NU mice, with a volume of 0.1 mL/per mice, containing approximately 5.0×10^6 tumor cells, to prepare NU/NU mice Hep3B xenogratf model.
In the vehicle group, the solvents were administered at the same frequency and volume for 14 consecutive days.
4.3 Observation Criteria and Evaluation Criteria • (1) General state observation: all animals were observed once a day during the test period and the abnormalities in various parts of the body and the behavior change situations were recorded. • (2) Body weight: all animals were weighed once before testing and the appropriate body weight of animals were selected for testing. Animals were weighed once a day at a fixed time after initiation of administration for weight monitoring, and body weight statistics were consistent with tumor volume statistics. • (3) Death and moribund: time of death was recorded for dead animals, moribund animals were observed more frequently, and time of death was determined. • (4) Tumor Evaluation
After animal grouping, tumor length and short diameters were measured twice per week. • (1) Tumor volume: V=½×a×b^2 • (2) Relative tumor volume:
[formula] • (3) Relative tumor volume proliferation rate:
[formula] • (4) Tumor growth inhibition rate:
[formula] • Note: V: Tumor volume • a: tumor length; b: tumor width; RTV: relative tumor volume; TVnd: tumor volume on day n; TV0d: tumor volume on day 0; RTVxnd: mean relative tumor volume on day n; TVXn: mean tumor volume on day n in the administrated group; TVX0: mean tumor volume on day 0 in the administrated group; TVMn: mean tumor volume on day n in the solvent (model) group; TVM0: mean tumor volume on day 0 in the solvent (model) group. • (5) Tumor weight
At the end of the test, the animals were sacrificed by cervical dislocation, and a tumor was stripped and weighed.
Data were processed using SPSS 19.0 statistical software. Repeated Measure process analyzed tumor volume changes between groups with multiple measurements over time. Multivariate process compared differences in tumor volume between groups at each measurement. Difference in tumor weight between groups was analyzed by LSD method of One-way ANOVA.

FGFR4 = FGFR4 (Homo sapiens, UniProt P22455); assay: FGFR4 kinase activity inhibition experiment (Caliper mobility shift assay); assay type: biochemical
Protocol: FGFR4 protein kinase activity was determined using Caliper mobility shift assay. The compound was dissolved in DMSO and then diluted with kinase buffer, 5 μL of 5-fold final reaction concentration of compound (10% DMSO) was added to a 384-well plate. […] After incubation at 28° C. for 30-60 minutes, 25 μL of stop solution was added to stop the reaction. Conversion data was read on Caliper EZ Reader II (Caliper Life Sciences). The conversion rate was converted to inhibition rate (% inhibition=(max−sample conversion rate)/(max−min)*100), wherein max refers to the conversion rate of the DMSO control, and min refers to the conversion rate of enzyme-free control. Curve was plotted with compound concentration and inhibition rate on the horizontal and vertical coordinates respectively, and the curve was fitted and IC50 was calculated using XLFit excel add-in version 4.3.1 software.

[2] = test system: Hep3B (human hepatocarcinoma cell line) xenograft; remark: listed apart in the source
Protocol: 36 BALB/c Nude mice, female, 18-20 g in body weight.
Compounds of formula (B), sorafenib tosylate, palbociclib.
Sorafenib tosylate/palbociclib: a solution of castor oil, anhydrous ethanol and ultrapure water in a volume ratio of 1:1:6.
In the solvent group, the solvents were administered at the same frequency and volume for 16 consecutive days.
4.3 Observation Criteria and Evaluation Criteria: Same as Example 2

[3] = 638 patients, cited from earlier work
[4] = patients taking sorafenib, N=2276; cited from earlier work
[5] = NU/NU mice, gavage qd 14 days, compound of formula (B) 5 mg/kg, lenvatinib mesylate 8 mg/kg, palbociclib 50 mg/kg
[6] = d14, compound of formula (B) 5 mg/kg, lenvatinib mesylate 8 mg/kg, palbociclib 50 mg/kg qd
[7] = BALB/c Nude mice, gavage qd 16 days, compound of formula (B) 5 mg/kg, sorafenib tosylate 8 mg/kg, palbociclib 50 mg/kg
[8] = compound of formula (B) 5 mg/kg, sorafenib tosylate 8 mg/kg, palbociclib 50 mg/kg qd
[9] = compound of formula (B) 5 mg/kg, sorafenib tosylate 8 mg/kg, palbociclib 50 mg/kg qd, listed as compound of formula (B)
[10] = most common drug-related adverse events

Chain of FGFR4 (P22455 22-802): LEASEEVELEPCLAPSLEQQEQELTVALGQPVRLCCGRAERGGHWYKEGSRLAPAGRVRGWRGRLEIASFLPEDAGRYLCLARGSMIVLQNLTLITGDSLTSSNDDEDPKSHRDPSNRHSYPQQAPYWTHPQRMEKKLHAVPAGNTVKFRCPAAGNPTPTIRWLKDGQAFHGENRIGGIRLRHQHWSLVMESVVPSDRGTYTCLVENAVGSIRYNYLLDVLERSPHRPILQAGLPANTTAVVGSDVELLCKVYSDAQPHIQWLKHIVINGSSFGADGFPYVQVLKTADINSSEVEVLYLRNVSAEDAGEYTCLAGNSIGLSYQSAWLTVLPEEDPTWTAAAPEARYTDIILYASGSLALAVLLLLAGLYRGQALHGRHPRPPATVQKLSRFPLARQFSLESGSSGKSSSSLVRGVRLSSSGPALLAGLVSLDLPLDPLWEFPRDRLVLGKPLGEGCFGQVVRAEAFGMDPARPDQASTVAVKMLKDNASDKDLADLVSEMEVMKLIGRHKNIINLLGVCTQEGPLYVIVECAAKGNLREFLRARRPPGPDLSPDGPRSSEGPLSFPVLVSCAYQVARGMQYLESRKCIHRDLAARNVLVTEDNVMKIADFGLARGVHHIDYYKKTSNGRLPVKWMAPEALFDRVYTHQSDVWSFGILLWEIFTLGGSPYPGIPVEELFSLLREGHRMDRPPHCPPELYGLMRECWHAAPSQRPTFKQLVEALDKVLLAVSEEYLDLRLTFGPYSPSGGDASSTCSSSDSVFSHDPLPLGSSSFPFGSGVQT

## N#Cc1cnc(NC(=O)N2CCCc3cc(CN4CCN5CCC[C@H]5C4=O)c(C=O)nc32)cc1NC1CC1 [Compound of formula (B)]
Huh-7 cells
  IC50: < 10 nM
[1]; [5]
  Change Rate in Weight (%): −4.5%
  Number of Animals (Survived/Total): 7/7
[1]; at the test dose
  growth of tumor (tumor weight) versus vehicle, in words: significantly inhibited the growth of the xenograft tumor
  growth of xenograft tumor (tumor volume) versus vehicle, in words: significantly inhibited the growth of the xenograft tumor
[1]; d14, Mean ± SD, n = 7, compound of formula (B) 5 mg/kg, lenvatinib mesylate 8 mg/kg, palbociclib 50 mg/kg qd
  TV (mm^3) d14: 607.8 ± 277.1** mm^3
[1]; [6]
  T/C d14 (%) (relative tumor volume proliferation rate): 55.8%
  TGI d14 (%) (tumor growth inhibition rate): 49.1%
[1]; end of test, Mean ± SD, n = 7, compound of formula (B) 5 mg/kg, lenvatinib mesylate 8 mg/kg, palbociclib 50 mg/kg qd
  Tumor Weight: 0.7481 ± 0.3692 g
[1]; end of test, compound of formula (B) 5 mg/kg, lenvatinib mesylate 8 mg/kg, palbociclib 50 mg/kg qd
  Tumor Weight Inhibition Rate (%): 43.8%
FGFR4
  IC50: < 5 nM
[2]; [7]
  Change Rate in Weight (%): −12.0%
  Number of Animals (Survived/Total): 6/6
[2]; at the test dose
  growth of xenograft tumor (tumor volume) versus vehicle, in words: can significantly inhibit the growth of the xenograft tumor
  tumor growth (tumor weight) versus vehicle, in words: can significantly inhibit tumor growth
[2]; d16, Mean ± SD, n = 6, compound of formula (B) 5 mg/kg, sorafenib tosylate 8 mg/kg, palbociclib 50 mg/kg qd
  TV(mm3) d16: 608.1 ± 293.4 mm3
[2]; [8]
  T/C d16 (%) (relative tumor volume proliferation rate): 75.1%
  TGI d16 (%) (tumor growth inhibition rate): 44.5%
[2]; [9]
  T/C d16 (%) (relative tumor volume proliferation rate): 84.5%
  TGI d16 (%) (tumor growth inhibition rate): 30.9%
[2]; days as stated (d13-d16 alone; d3-d6, d10-d16 with sorafenib tosylate; d6-d16 with palbociclib)
  tumor volume growth compared to model (vehicle) group at corresponding time points, in words: can significantly inhibit tumor volume growth
[2]; end of test, Mean ± SD, n = 6, compound of formula (B) 5 mg/kg, sorafenib tosylate 8 mg/kg, palbociclib 50 mg/kg qd
  Tumor Weight: 0.59 ± 0.34 g
[2]; end of test, compound of formula (B) 5 mg/kg, sorafenib tosylate 8 mg/kg, palbociclib 50 mg/kg qd
  Tumor Weight Inhibition Rate (%): 46.4%
[2]; end of test, compound of formula (B) 5 mg/kg, sorafenib tosylate 8 mg/kg, palbociclib 50 mg/kg qd, listed as compound of formula (B)
  Tumor Weight Inhibition Rate (%): 27.8%

## CNC(=O)c1cc(Oc2ccc(NC(=O)Nc3ccc(Cl)c(C(F)(F)F)c3)cc2)ccn1 [sorafenib]
[3]
  incidence of CTC (version V2.0) Grade 3 drug-related adverse events: 37%
  incidence of CTC (version V2.0) Grade 4 drug-related adverse events: 3%
[3]; [10]
  diarrhea: 37%
  hand and foot skin reactions: 35%
  malaise: 33%
  rash: 38%
[4]
  incidence of congestive heart failure: 1.9%
